Measurements as given in article PMC12035805, “A Water-Soluble Aggregation-Induced Emission Photosensitizer with Intrinsic Antibacterial Activity as an Antiplanktonic and Antibiofilm Therapeutic Agent” (Journal of Medicinal Chemistry, 2025).
≈ marks a conversion by molar mass, not a printed value. Like-named read-outs stand apart in the source and are kept apart here.

Legend:
[1] = tested on: methicillin-resistant S. aureus (BAA 41); assay: MIC assay (broth microdilution, CLSI), without light; assay type: cell-based; details: Staphylococcus aureus, BAA41, light or radiation study, read-out: MIC against methicillin-resistant S. aureus (BAA 41)
Procedure: (§1) The MIC assays of TPA-1 were conducted according to the broth microdilution methods described in the Clinical and Laboratory Standards Institute (CLSI) standard. A single colony of S. aureus (ATCC 29213), methicillin-resistant S. aureus (BAA 41), or P. aeruginosa (ATCC 27853) on an LB agar plate was picked and suspended in Mueller–Hinton Broth (MHB). The bacterial culture was grown overnight at 37 °C. The next day, the bacteria culture was diluted 100 times in fresh MHB and grown to the mid log phase. Bacteria in the mid log phase were further diluted to 5 × 10^6 CFU/mL in cation-adjusted MHB (S. aureus) or MHB (P. aeruginosa). Ten μL of the diluted bacteria were added to a 96-well plate containing 90 μL of serial diluted TPA-1 in the corresponding medium. The plate was incubated overnight at 37 °C. The MICs of the TPA compounds were the concentrations at which no apparent bacteria were observed by the naked eye. Different concentrations of LTA were also added to examine the change in MIC values of TPA-1 against S. aureus. The experiments were conducted in triplicate.

[2] = tested on: S. aureus (ATCC 29213); assay: as above; assay type: cell-based; details: Staphylococcus aureus, ATCC29213, light or radiation study, read-out: MIC against S. aureus (ATCC 29213)
Procedure: as §1

[3] = tested on: P. aeruginosa (ATCC 27853); assay: as above; assay type: cell-based; details: Pseudomonas aeruginosa, ATCC27853, light or radiation study; without light irradiation; read-out: MIC against P. aeruginosa (ATCC 27853)
Procedure: as §1

[4] = Log P, 1-octanol/water partition; assay type: physicochemical; details: 1-octanol/water (1:1)
Procedure: The log P values of TPA compounds were obtained according to previously reported methods.[66] 1-octanol was first presaturated with water. Equal volume and concentration of TPA-NC-1, TPA-0, and TPA-1 were added to a 1-octanol/water (1:1) mixture and vortexed for 1 min. The mixture was then centrifuged for 5 min at 13,500 rpm. After that, the absorptions of the compound in the 1-octanol and water phases were measured. The concentrations of the compound in both phases were calculated by using the absorption calibration curve of the corresponding compound. Log P = log (concentration of the compound in 1-octanol/concentration of the compound in water).

[5] = Cytotoxicity (MTT) assay against HFF-1 cells; assay type: cell-based; details: human, no irradiation, read-out: 50% cytotoxicity concentration (CC50) against HFF-1 cells
Procedure: The cytotoxicity of TPA-1, TPA-0, and TPA-NC-1 against HFF-1 cells was evaluated using the 3-(4,5-dimethylthiazol-2-yl)-2,5-diphenyltetrazolium bromide (MTT) assay kit from ThermoFisher Scientific. In general, HFF-1 cells (MEM, 10% FBS, and 1% penicillin-streptomycin) were seeded in a 96-well plate with a density of 3000 cells/well overnight at 37 °C with 5% CO2. Then, the cells were treated with different concentrations of compounds for 24 h. MTT (10 μL, 5 mg/mL) was added to the medium, and the cells were further incubated for 3 h. The medium was then replaced by DMSO (100 μL). After gently shaking the plate for 30 s, the optical density of the solutions at 570 nm was measured by a BMG Labtech CLARIOstar microplate reader. The cell viability was calculated as (ODcompound – ODDMSO)/(ODmedium - ODDMSO) × 100% where ODcompound, ODmedium, and ODDMSO are the optical densities of the treated cell, nontreated cells, and DMSO at 570 nm, respectively. The experiment was conducted in triplicate. The CC50 values were calculated using GraphPad Prism 8.

[6] = Hemolysis of human erythrocytes; assay type: cell-based; details: 200 μM compound, 1 h, 37 °C
Procedure: (§2) The human erythrocyte concentrate was prepared according to the kit manual from the Biomaterial Hemolytic Assay Kit (Hemoscan). After the human erythrocytes had been washed and diluted with manufacture buffer, 100 μL of erythrocytes (10%) were added into 100 μL of various concentrations of compounds in PBS. 1% of Triton X (1%) was the positive control, while PBS was the negative control. The erythrocytes were then gently mixed with the TPA compounds and further incubated for an hour at 37 °C. After that, the erythrocytes were centrifuged (1000 rpm, 5 min), and 20 μL of supernatant was added to 180 μL of PBS in a 96-well plate. The optical density at 380, 415, and 450 nm was measured by a plate reader. The final OD value of the compounds was calculated as (2 × OD415) – (OD450 + OD380) where OD380, OD415, and OD450 are the optical density of the solution at 380, 415, and 450 nm, respectively. The hemolysis rates of the compounds were calculated as (ODcompound – ODPBS)/(ODTritonX – ODPBS) × 100% where ODcompound, ODPBS, and ODTritonX are the final OD values of the erythrocytes mixed with TPA compounds, PBS, and 1% Triton X, respectively. The experiment was performed in triplicate.

[7] = tested on: human erythrocytes; assay: Hemolysis of human erythrocytes; assay type: cell-based
Procedure: as §2

[8] = tested on: S. aureus; assay: Resistance development assay on S. aureus; assay type: cell-based, Staphylococcus aureus
Procedure: The MICs for TPA-1 and norfloxacin against S. aureus were first determined by the above-mentioned method. The wells with 0.5 × MIC of compounds were transferred to 1 mL fresh MHB and incubated under darkness for 3–4 h at 37 °C. The bacteria were then used to conduct a MIC assay again. The experiments were repeated for 20 days. The fold changes in the MIC values of the compounds were recorded. The experiments were performed in duplicate.

SMILES | logP [4] | CC50 at 24 h [5] | hemolysis at 1 h, 200 µM [6] | HC50 [7] | other results
CN[C@H](CC(C)C)C(=O)N[C@H]1C(=O)N[C@@H](CC(N)=O)C(=O)N[C@H]2C(=O)N[C@H]3C(=O)N[C@H](C(=O)N[C@H](C(=O)O)c4cc(O)cc(O)c4-c4cc3ccc4O)[C@H](O)c3ccc(c(Cl)c3)Oc3cc2cc(c3O[C@@H]2O[C@H](CO)[C@@H](O)[C@H](O)[C@H]2O[C@H]2C[C@](C)(N)[C@H](O)[C@H](C)O2)Oc2ccc(cc2Cl)[C@H]1O [Vancomycin, reference compound] |  |  |  |  | MIC [1]: 0.625 µM (≈ 0.906 µg/mL); MIC [2]: 0.625 µM (≈ 0.906 µg/mL)
C[C@@H](O)[C@H]1C(=O)N2C(C(=O)O)=C(S[C@@H]3CN[C@H](C(=O)N(C)C)C3)[C@H](C)[C@H]12 [Meropenem, reference compound] |  |  |  |  | MIC ([2]; without light irradiation): 0.312 µM (≈ 0.12 µg/mL); MIC [3]: 2.5 µM (≈ 0.959 µg/mL)
CC[n+]1c(/C=C/c2ccc(-c3ccc(N(c4ccc(OC)cc4)c4ccc(OC)cc4)cc3)s2)sc2ccccc21.[Br-] [TPA-NC-1, reference compound] | 1.1 | 7.8 ± 0.7 µM | > 60% | < 200 µM | 
CCn1cc(C(=O)O)c(=O)c2cc(F)c(N3CCNCC3)cc21 [norfloxacin, reference compound] |  |  |  |  | increase of MIC against S. aureus after treatment for 20 days ([8]; 20 days of passages at 0.5 × MIC): 1024 fold; MIC ([8]; Staphylococcus aureus, read-out: initial MIC against S. aureus in resistance development assay): 0.5 µM (≈ 0.16 µg/mL)
CC[n+]1c(/C=C/c2ccc(-c3ccc(N(c4ccc(OCCC[N+](C)(C)C)cc4)c4ccc(OCCC[N+](C)(C)C)cc4)cc3)s2)sc2ccccc21.[Br-].[Br-].[Br-] [TPA-0] | -1.7 | 120 ± 20 µM | < 3% | > 200 µM | 
